Patent US8192962B2, “Processes for detecting toxic substances” (Daikin Industries, Ltd., priority 2001, dated 2012)

Tested on: Metabolism protein genes
Assay: DNA chip mRNA expression in yeast, metabolism protein genes (Table 7)
Type: cell-based, Saccharomyces cerevisiae S288C
Experimental: Yeast (Saccharomyces cerevisiae S288C (α SUC2mal mel gap2 CUP1)) were incubated at 25° C. on YPD medium (yeast extract 1%, polypepton 2%, glucose 2%). One of toxic chemical substances was added to the cells at logarithmic growth phase, and the cells were further incubated for two hours. Cells were cultured without any chemical substance in the same condition, and were used as control. Concentrations of the chemical substances were defined to inhibit the growth of the yeast but not lead to death.
After completion of the incubation, the culture was centrifuged to collect the cells. To the cells, sodium acetate buffer (50 mM sodium acetate, 10 mM EDTA, 1% SDS) was added, and the mixture was shaken at 65° C. for five minutes, followed by returning to room temperature, and obtaining the supernatant, of which the procedures were repeated two times. To the supernatant, ½ amount of a solution of phenol/chloroform was added, and the mixture was centrifuged to give a supernatant, which was added with an equal amount of chloroform, and the mixture was centrifuged to give a supernatant. To the supernatant, an equal amount of isopropanol containing 0.3 M sodium acetate was added, and the mixture was allowed to stand at room temperature for 30 minutes, after which the mixture was centrifuged to give a sediment of the whole RNAs. Seventy % ethanol was added to the sediment, and the mixture was again centrifuged to give a sediment, which was then dried and dissolved in water. mRNA was isolated from the whole RNAs as followings. In view of the fact that a poly A chain is attached to the 3′ terminus of mRNA, a polynucleotide having a poly T structure which was immobilized on the surface of latex beads was used to trap the mRNA, and then the mRNA was washed and eluted with spine column (Oligotex-dT30<Super>mRNA Purification Kit, Takara). Reverse transcription of the mRNA was conducted with a reverse transcriptase (Super Script II Reverse Transcriptase; catalogue No. 18064-014, GibcoBRL) using fluorescence-labeled nucleotides to give cDNAs that were introduced with Cy3-dUTP or Cy5-dUTP during the reverse transcription.
The labeled cDNAs were dissolved in TE buffer (10mM Tris-HCl/1 mM EDTA, pH8.0), and the solution was dropped on the DNA chip containing the whole genes of yeast (DNA Chip Research Inc. Japan) so that the cDNAs were hybridized on the DNA chip at 65° C. for over 12 hours. The fluoresces intensity of the DNA chip was read with a scanner, and the ratio relative to the fluorescence intensity resulting from the absence of chemical substance was estimated as the following, which is shown in Tables 1 to 9: […]

[Cl][Cd][Cl] [(2), CdCl2]
3.7: The level of expressed mRNA in the presence of chemical substance/The level of expressed mRNA in the absence of chemical substance (yeast gene YJR155W)
0.7: level of expressed mRNA in the presence/in the absence of chemical substance (yeast gene YLR006C) | level of expressed mRNA in the presence/in the absence of chemical substance (yeast gene YMR015C) | level of expressed mRNA in the presence/in the absence of chemical substance (yeast gene YMR205C) | The level of expressed mRNA in the presence of chemical substance/The level of expressed mRNA in the absence of chemical substance (yeast gene YMR296C) | level of expressed mRNA in the presence/in the absence of chemical substance (yeast gene YOL156W) | level of expressed mRNA in the presence/in the absence of chemical substance (yeast gene YOR128C) | level of expressed mRNA in the presence/in the absence of chemical substance (yeast gene YOR348C) | level of expressed mRNA in the presence/in the absence of chemical substance (yeast gene YPR165W)
0.4: The level of expressed mRNA in the presence of chemical substance/The level of expressed mRNA in the absence of chemical substance (yeast gene YLR307W)
1.6: level of expressed mRNA in the presence/in the absence of chemical substance (yeast gene YMR261C) | The level of expressed mRNA in the presence of chemical substance/The level of expressed mRNA in the absence of chemical substance (yeast gene YMR271C)
1.7: The level of expressed mRNA in the presence of chemical substance/The level of expressed mRNA in the absence of chemical substance (yeast gene YML070W) | level of expressed mRNA in the presence/in the absence of chemical substance (yeast gene YMR083W) | The level of expressed mRNA in the presence of chemical substance/The level of expressed mRNA in the absence of chemical substance (yeast gene YOR130C)
1.3: The level of expressed mRNA in the presence of chemical substance/The level of expressed mRNA in the absence of chemical substance (yeast gene YKL091C) | The level of expressed mRNA in the presence of chemical substance/The level of expressed mRNA in the absence of chemical substance (yeast gene YKL152C) | The level of expressed mRNA in the presence of chemical substance/The level of expressed mRNA in the absence of chemical substance (yeast gene YNL012W) | The level of expressed mRNA in the presence of chemical substance/The level of expressed mRNA in the absence of chemical substance (yeast gene YNL045W) | The level of expressed mRNA in the presence of chemical substance/The level of expressed mRNA in the absence of chemical substance (yeast gene YNL104C) | The level of expressed mRNA in the presence of chemical substance/The level of expressed mRNA in the absence of chemical substance (yeast gene YNR019W) | The level of expressed mRNA in the presence of chemical substance/The level of expressed mRNA in the absence of chemical substance (yeast gene YOR099W) | level of expressed mRNA in the presence/in the absence of chemical substance (yeast gene YOR178C)
3.6: The level of expressed mRNA in the presence of chemical substance/The level of expressed mRNA in the absence of chemical substance (yeast gene YNL331C)
1.2: level of expressed mRNA in the presence/in the absence of chemical substance (yeast gene YLR089C) | level of expressed mRNA in the presence/in the absence of chemical substance (yeast gene YNL192W) | The level of expressed mRNA in the presence of chemical substance/The level of expressed mRNA in the absence of chemical substance (yeast gene YOL153C) | level of expressed mRNA in the presence/in the absence of chemical substance (yeast gene YOR142W) | level of expressed mRNA in the presence/in the absence of chemical substance (yeast gene YPL135W) | The level of expressed mRNA in the presence of chemical substance/The level of expressed mRNA in the absence of chemical substance (yeast gene YPR026W)
4.5: The level of expressed mRNA in the presence of chemical substance/The level of expressed mRNA in the absence of chemical substance (yeast gene YLR348C) | The level of expressed mRNA in the presence of chemical substance/The level of expressed mRNA in the absence of chemical substance (yeast gene YOL165C)
5.8: The level of expressed mRNA in the presence of chemical substance/The level of expressed mRNA in the absence of chemical substance (yeast gene YPR167C)
3.0: The level of expressed mRNA in the presence of chemical substance/The level of expressed mRNA in the absence of chemical substance (yeast gene YMR105C)
1.8: The level of expressed mRNA in the presence of chemical substance/The level of expressed mRNA in the absence of chemical substance (yeast gene YML054C)
0.6: level of expressed mRNA in the presence/in the absence of chemical substance (yeast gene YLR044C) | level of expressed mRNA in the presence/in the absence of chemical substance (yeast gene YLR056W) | level of expressed mRNA in the presence/in the absence of chemical substance (yeast gene YLR304C) | level of expressed mRNA in the presence/in the absence of chemical substance (yeast gene YML022W)
1.0: The level of expressed mRNA in the presence of chemical substance/The level of expressed mRNA in the absence of chemical substance (yeast gene YKL104C) | level of expressed mRNA in the presence/in the absence of chemical substance (yeast gene YKL157W) | The level of expressed mRNA in the presence of chemical substance/The level of expressed mRNA in the absence of chemical substance (yeast gene YLR273C) | level of expressed mRNA in the presence/in the absence of chemical substance (yeast gene YLR284C) | level of expressed mRNA in the presence/in the absence of chemical substance (yeast gene YMR011W) | The level of expressed mRNA in the presence of chemical substance/The level of expressed mRNA in the absence of chemical substance (yeast gene YMR020W) | level of expressed mRNA in the presence/in the absence of chemical substance (yeast gene YOL116W) | level of expressed mRNA in the presence/in the absence of chemical substance (yeast gene YOR251C)
2.6: level of expressed mRNA in the presence/in the absence of chemical substance (yeast gene YOR176W)
2.7: The level of expressed mRNA in the presence of chemical substance/The level of expressed mRNA in the absence of chemical substance (yeast gene YML100W)
1.1: The level of expressed mRNA in the presence of chemical substance/The level of expressed mRNA in the absence of chemical substance (yeast gene YKL215C) | level of expressed mRNA in the presence/in the absence of chemical substance (yeast gene YMR323W) | level of expressed mRNA in the presence/in the absence of chemical substance (yeast gene YOR002W) | level of expressed mRNA in the presence/in the absence of chemical substance (yeast gene YPL057C)
0.9: The level of expressed mRNA in the presence of chemical substance/The level of expressed mRNA in the absence of chemical substance (yeast gene YKL035W) | The level of expressed mRNA in the presence of chemical substance/The level of expressed mRNA in the absence of chemical substance (yeast gene YMR008C) | The level of expressed mRNA in the presence of chemical substance/The level of expressed mRNA in the absence of chemical substance (yeast gene YNL322C) | The level of expressed mRNA in the presence of chemical substance/The level of expressed mRNA in the absence of chemical substance (yeast gene YNR059W) | level of expressed mRNA in the presence/in the absence of chemical substance (yeast gene YOR108W) | The level of expressed mRNA in the presence of chemical substance/The level of expressed mRNA in the absence of chemical substance (yeast gene YOR347C) | level of expressed mRNA in the presence/in the absence of chemical substance (yeast gene YPL028W)
1.4: The level of expressed mRNA in the presence of chemical substance/The level of expressed mRNA in the absence of chemical substance (yeast gene YLR180W) | level of expressed mRNA in the presence/in the absence of chemical substance (yeast gene YNL025C) | The level of expressed mRNA in the presence of chemical substance/The level of expressed mRNA in the absence of chemical substance (yeast gene YNL106C) | The level of expressed mRNA in the presence of chemical substance/The level of expressed mRNA in the absence of chemical substance (yeast gene YNL169C) | The level of expressed mRNA in the presence of chemical substance/The level of expressed mRNA in the absence of chemical substance (yeast gene YOR336W)
2.5: level of expressed mRNA in the presence/in the absence of chemical substance (yeast gene YLR354C) | The level of expressed mRNA in the presence of chemical substance/The level of expressed mRNA in the absence of chemical substance (yeast gene YPL017C)
1.9: The level of expressed mRNA in the presence of chemical substance/The level of expressed mRNA in the absence of chemical substance (yeast gene YLR299W)
0.3: level of expressed mRNA in the presence/in the absence of chemical substance (yeast gene YLR372W)
0.8: level of expressed mRNA in the presence/in the absence of chemical substance (yeast gene YKL060C) | level of expressed mRNA in the presence/in the absence of chemical substance (yeast gene YKL148C) | The level of expressed mRNA in the presence of chemical substance/The level of expressed mRNA in the absence of chemical substance (yeast gene YKL213C) | level of expressed mRNA in the presence/in the absence of chemical substance (yeast gene YLR058C) | level of expressed mRNA in the presence/in the absence of chemical substance (yeast gene YLR081W) | The level of expressed mRNA in the presence of chemical substance/The level of expressed mRNA in the absence of chemical substance (yeast gene YLR300W) | The level of expressed mRNA in the presence of chemical substance/The level of expressed mRNA in the absence of chemical substance (yeast gene YMR189W) | The level of expressed mRNA in the presence of chemical substance/The level of expressed mRNA in the absence of chemical substance (yeast gene YNL231C) | The level of expressed mRNA in the presence of chemical substance/The level of expressed mRNA in the absence of chemical substance (yeast gene YNR033W) | The level of expressed mRNA in the presence of chemical substance/The level of expressed mRNA in the absence of chemical substance (yeast gene YOL126C) | level of expressed mRNA in the presence/in the absence of chemical substance (yeast gene YOR085W) | level of expressed mRNA in the presence/in the absence of chemical substance (yeast gene YOR103C) | level of expressed mRNA in the presence/in the absence of chemical substance (yeast gene YPL148C) | level of expressed mRNA in the presence/in the absence of chemical substance (yeast gene YPR113W)
0.5: The level of expressed mRNA in the presence of chemical substance/The level of expressed mRNA in the absence of chemical substance (yeast gene YOL058W) | level of expressed mRNA in the presence/in the absence of chemical substance (yeast gene YOL086C)
3.8: The level of expressed mRNA in the presence of chemical substance/The level of expressed mRNA in the absence of chemical substance (yeast gene YLL058W)
1.5: level of expressed mRNA in the presence/in the absence of chemical substance (yeast gene YKR034W) | The level of expressed mRNA in the presence of chemical substance/The level of expressed mRNA in the absence of chemical substance (yeast gene YNL332W) | level of expressed mRNA in the presence/in the absence of chemical substance (yeast gene YOL108C) | level of expressed mRNA in the presence/in the absence of chemical substance (yeast gene YPR183W)
